Entries after “also recorded” stand apart in the source; their conditions may differ. Where two headings read alike, the source gives them in different places.
Legend:
[1] = test system: ID8 ovarian cancer cell line; test: Murine model of ovarian cancer, sv6D and paclitaxel
Protocol: Combination study of sv6D and paclitaxel. (FIG. 8A) Female C57BL/6 mice were implanted with ID8 ovarian cancer cell line. […] Body weights of mice are shown as measured on day 58, after two weeks of alternate-day subcutaneous treatment with sv6D (0.1 nmol/g) or 3 intraperitoneal doses (days 45, 47 and 49) of 18 μg/g paclitaxel in cremophor. […] (FIG. 8B) Alternate-day injections of sv6D were initiated on day 50 with peptide alone or on day 100 to mice that were previously treated with paclitaxel between day 45 and 49. […] (FIG. 8C) Kaplan-Meier survival curves for mice treated with paclitaxel, sv6D or a combination of the two in which alternate-day subcutaneous injections of sv6D was started 50 days after paclitaxel treatment.
Cells of an ovarian epithelial cancer line, ID8 [110], were implanted into the peritoneal cavity of female C57BL/6 mice at a dose of 6×10^6 cells. All animals were weighed at least weekly throughout these studies. Accumulation of ascites was monitored by increase in body weight, and animals were euthanized when end-stage behavior was expressed. […] Kaplan-Meier survival curves were analyzed by the Mantel-Cox log-rank test.
A murine ovarian cancer cell line (ID8) was implanted into the peritoneal cavity of C57BL/6 female mice on day 0. […] Progression of the cancer was monitored by body weight of animals as an indication of ascites accumulation.

ASGPR-1 = biological target: T1, ASGPR-1 (Homo sapiens, UniProt P07306); conditions: ref [49]; cited from earlier work
T1 sequence (P07306 1-291): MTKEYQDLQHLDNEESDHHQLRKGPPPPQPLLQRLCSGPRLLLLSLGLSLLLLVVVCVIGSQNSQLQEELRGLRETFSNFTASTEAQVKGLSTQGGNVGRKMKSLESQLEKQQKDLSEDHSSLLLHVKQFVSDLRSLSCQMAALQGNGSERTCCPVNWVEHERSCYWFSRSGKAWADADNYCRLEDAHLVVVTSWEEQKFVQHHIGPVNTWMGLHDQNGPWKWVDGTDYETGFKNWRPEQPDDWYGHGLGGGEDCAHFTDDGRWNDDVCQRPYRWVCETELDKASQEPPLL

human ASGPR-1 = biological target: T2, human ASGPR-1 (Homo sapiens, UniProt P07306); test: Solid-phase binding assay with recombinant receptors
T2 construct: The extracellular domains of receptors, which were fused with the Fc domain of immunoglobulin IgG; purchased R&D Systems
T2 sequence (P07306 62-291 limits assumed): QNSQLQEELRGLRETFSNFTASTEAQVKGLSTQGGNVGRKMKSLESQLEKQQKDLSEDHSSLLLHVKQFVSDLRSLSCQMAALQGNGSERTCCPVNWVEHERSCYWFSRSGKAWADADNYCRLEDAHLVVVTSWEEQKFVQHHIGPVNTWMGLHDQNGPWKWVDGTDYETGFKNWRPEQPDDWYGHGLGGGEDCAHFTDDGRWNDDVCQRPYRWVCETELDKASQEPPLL
Protocol: (§1) Binding Assays Solid-phase binding assays were performed with streptavidin-, protein A/G-, or Nickel-coated microtiter plates (Pierce). His-tagged or Fc-fusion recombinant receptors (R&D Systems, Minneapolis, Minn.) were reconstituted in PBS. Sufficient receptors were added to wells to saturate the coating. His-tagged receptors were added to each well at a 5-fold excess over the stated capacity of the Ni coating to minimize non-specific binding of the peptide. Wells were washed three times with binding buffer (25 mM Tris HCl, pH 7.4, 150 mM NaCl, 0.05% Tween-20) to remove unbound receptor and 50 μL of 2 μM biotinylated peptide in binding buffer were added and allowed to incubate for 1 h. The wells were washed four times with binding buffer and then incubated with 50 μL of 1 μg/mL streptavidin conjugated with peroxidase (Sigma-Aldrich) for 1 h. The wells were washed five times with binding buffer and 50 μL of peroxidase substrate (1-Step™ Ultra TMB, Pierce) were added. After several minutes to allow color development, the reaction was stopped with 50 μL 1 M H3PO4 and absorbance was measured at 450 nm. Bound streptavidin was quantitated by the specific activity of peroxidase (absorbance/ng protein conjugate/min) under the conditions of the assay.
(§2) Solid-phase binding assays were performed with recombinant human receptors. Three variations of the binding assay were used in this study, all of which allowed the arms of the tetravalent peptide to have full flexibility. (i) Biotinylated peptide was bound in microtiter wells coated with streptavidin and incubated with recombinant human receptors. After extensive washing, the bound receptor was measured by peroxidase conjugated to a receptor-specific antibody. (ii) The extracellular domains of receptors, which were fused with the Fc domain of immunoglobulin IgG, were bound in wells coated with protein A/G. Biotinylated peptide was incubated with the receptors and, after extensive washing, bound peptide was measured with streptavidin conjugated with peroxidase. Or (iii), recombinant receptors with a poly-His tag were bound to Nickel-coated wells and incubated with biotinylated peptide. svL4 and sv6D contain His residues (FIGS. 1A, 1C) and can bind to the Ni coating, which was minimized by adding sufficient poly-His-tagged receptor to saturate the Ni coating.

STING protein = STING protein (Homo sapiens, UniProt Q86WV6); conditions: refs [108,109]; cited from earlier work
STING protein, sequence (Q86WV6 whole entry): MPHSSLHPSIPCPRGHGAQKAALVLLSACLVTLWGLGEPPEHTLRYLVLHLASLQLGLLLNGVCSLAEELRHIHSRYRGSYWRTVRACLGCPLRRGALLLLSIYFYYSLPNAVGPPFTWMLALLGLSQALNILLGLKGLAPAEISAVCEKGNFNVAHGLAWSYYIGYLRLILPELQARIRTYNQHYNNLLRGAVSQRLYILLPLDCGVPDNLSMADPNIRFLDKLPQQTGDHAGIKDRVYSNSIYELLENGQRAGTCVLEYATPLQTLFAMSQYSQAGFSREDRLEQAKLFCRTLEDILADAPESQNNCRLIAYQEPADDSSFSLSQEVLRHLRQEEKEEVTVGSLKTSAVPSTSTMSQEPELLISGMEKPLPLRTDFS

STING pathway = test: THP1-Dual reporter cells, secreted luciferase; type: cell-based, human; conditions: medium of THP1 reporter cells
Protocol: FIGS. 12A-12B. Conjugation with cyclic dinucleotide. (FIG. 12A) The cyclic dinucleotide, c[G(2′,5′)p-2′-AHC-A(3′,5′)p] (CDN, AHC=6-aminohexylcarbamoyl), was conjugated to N-acetylated-sv6D by a carbodiimide reaction. (FIG. 12B) The conjugate delivers the activation factor at much lower concentrations. Human THP1 monocytes, engineered to detect activation of the type 1 IFN pathway (THP1-Dual™ Cells, InvivoGen, San Diego, Calif.), were incubated 20 hours with sv6D in RPMI 1640 medium containing 10% fetal bovine serum after adding the peptide CDN conjugate. The medium was recovered and then incubated with the luciferase detection reagent (Quanti-Luc™, InvivoGen) to assay for luciferase secreted in response to activation of the STING pathway. Photons were detected with a spectrofluorometer. […] The conjugate targets M2 macrophages and tumor cells that express CLEC10A and thus would produce IFN-β within the tumor microenvironment. […]
The ability of sv6D-CDN conjugates to induce activation of the STING pathway for production of type 1 interferons (IFN-α/β) was tested by incubating human THP1 monocytes that were genetically engineered as reporter cells (InvivoGen, San Diego, Calif.), with the conjugate. […] However, luciferase was detected in the medium of cells incubated with nanomolar concentrations of sv6D-CDN conjugate.

[2] = ref [90], cited from earlier work
peritoneal immune cells = test: Expansion of peritoneal cells after subcutaneous injection, flow cytometry; type: in vivo, C57BL/6 mice; conditions: 1 nmol/g s.c. on days 0, 2, 4; cells 24 h after each injection
Protocol: FIGS. 7A-7D. Expansion of peritoneal cells in C57BL/6 mice. Mice were injected subcutaneously at a dose of 1 nmol/g body weight of svL4, sv6D or svC1. Cells in each population recovered in a peritoneal lavage are expressed as cell counts (in thousands). Cells from three mice in each treatment group were pooled for analysis. The number of cells in each population was normalized to the average recovery of total cells from all groups. For each cell type, the left-hand, middle and right-hand set of bars represent samples from mice treated with svL4, sv6D or svC1, respectively. Mice were injected on days 0, 2 and 4, and cells were collected 24 h after each injection. Day 1, open bar; day 3, grey bar; day 5, black bar. Populations that express activation markers are indicated by an asterisk.
Flow Cytometry Healthy C57BL/6 male mice, 10 weeks old, were injected subcutaneously with peptides on alternate days. Peritoneal cells were isolated from mice 24 h after dosing by injecting ice cold PBS (containing 3% FBS) into the peritoneal cavity, gently massaging the abdomen, and then collecting the fluid, which was transferred into K2EDTA-treated tubes for evaluation of specific biomarkers. Cells from three mice in each group were pooled, counted and divided among FACS tubes (1×10^6 cells per tube). Cells were washed once in PBS containing 3% FBS, then stained with 0.25 to 1 μg of fluorescently conjugated antibody per 10^6 cells in 100 μL of buffer as recommended by the manufacturer (Table 1).
Cells were incubated with the antibodies for 30 min at 4° C. in the dark. Following staining, the cells were washed two times with PBS/3% FBS and immediately analyzed with a MACSQuant flow cytometer (Miltenyi Biotech, Inc., San Diego, Calif.). Compensation was performed using single stain tubes for each color present in the analysis as well as an unstained control sample. Collection of flow cytometric data and analysis with FlowJo software, version 10.0.6 (FlowJo, LLC, Ashland, Oreg.) were performed by Biomodels LLC (Watertown, Mass.).
To examine whether increases occurred in mature immune cells, peritoneal cells from Balb/c and C57BL/6 mice were analyzed by flow cytometry after cells were stained with the markers listed in Table 1. […] To explore this observation more extensively, svL4 or sv6D was injected into C57BL/6 mice on day 0, 2 or 4. Peritoneal cells were examined by flow cytometry 24 h after each injection. Shown in FIGS. 7A-7D are results expressed as cell counts for F4/80 CD11b CD86 (mature, active macrophages); CD11c (DCs); CD11c CD86 (activated DCs); CD4 CD69 (activated T cells); CD8 CD69 (activated cytotoxic T cells); NK1.1 CD3^+ CD69 (activated NKT cells); NK1.1 CD3^− CD69 (activated NK cells); CD19 (B cells); and CD19 CD73 CD80 CD273 (memory B cells). The numbers of these mature, activated cells continued to increase with each injection.

[3] = biological target: T3, recombinant human CLEC10A (Homo sapiens, UniProt Q8IUN9); test: Solid-phase binding assay with recombinant receptors; conditions: biotinylated tetravalent peptide
T3 construct: The extracellular domains of receptors, which were fused with the Fc domain of immunoglobulin IgG; purchased R&D Systems
T3 sequence (Q8IUN9 61-316 limits assumed): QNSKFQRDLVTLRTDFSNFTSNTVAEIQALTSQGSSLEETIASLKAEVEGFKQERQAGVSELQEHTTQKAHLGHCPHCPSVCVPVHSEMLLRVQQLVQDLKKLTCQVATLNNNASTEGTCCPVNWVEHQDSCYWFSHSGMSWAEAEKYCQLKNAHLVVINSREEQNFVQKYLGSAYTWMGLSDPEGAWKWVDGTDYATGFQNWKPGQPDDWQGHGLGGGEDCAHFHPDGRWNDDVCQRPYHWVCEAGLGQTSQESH
Protocol: as §1, §2

[4] = photodynamic, read-out: IC50 concentration for cell killing

## CC(=O)O[C@H]1C(=O)[C@@]2(C)[C@H]([C@H](OC(=O)c3ccccc3)[C@]3(O)C[C@H](OC(=O)[C@H](O)[C@@H](NC(=O)c4ccccc4)c4ccccc4)C(C)=C1C3(C)C)[C@]1(OC(C)=O)CO[C@@H]1C[C@@H]2O [paclitaxel, reference compound]
[1]; single agent, sv6D 0.1 nmol/g, control median end-stage day 122
  Median survival: approximately 141 days
[1]; treatment from day 45, sv6D 0.1 nmol/g s.c. alternate days, paclitaxel 18 μg/g i.p. x3
  Body weight (ascites accumulation) after two weeks of treatment: had not significantly increased

## Asialofetuin: a multi-glycosylated protein [reference compound]
ASGPR-1
  IC50: 45.6 ± 2.7 µM
Human ASGPR-1; asialofetuin at 75 μM, svL4 0.2 μM
  Inhibition of binding of svL4 to ASGPR-1: 53%

## c[G(2′,5′)p-2′-AHC-A(3′,5′)p] [CDN]
STING protein
  Kd: ~5 µM
STING pathway
  Concentration range needed to detect luciferase activity: micromolar concentrations
STING pathway; listed as cyclic dinucleotides
  Concentration range needed to detect luciferase activity: micromolar range

## chlorin p6
[2]; exposed to red light, read-out: IC50 for photosensitized cell killing
  IC50: 0.03 µM
[2]; [4]
  IC50: ~0.01 µM

## purpurin-18
[2]; [4]
  IC50: ~0.01 µM

## svC1: subset of svL4: the N-terminal half of the sequence; does not bind CLEC10A, used as control (VQATQSGGGS)
Peritoneal immune cells
  Change in mature, active peritoneal immune cell populations: did not increase significantly
[3]
  Binding to CLEC10A: near the level of blank wells; also recorded: does not bind
Human ASGPR-1; biotinylated tetravalent peptide
  Binding to ASGPR-1: near the level of blank wells

From patent US11376307B2, “Compositions and methods of treating cancer with glycomimetic peptides” (SUSAVION BIOSCIENCES, INC., priority 2018, dated 2022)
